The source of these data is patent US9839638B2, “Compositions and methods for protecting cells during cancer chemotherapy and radiotherapy” (Wisconsin Alumni Research Foundation, priority 2000, dated 2017).

Data set [1] concerns CTX induced alopecia in 7 day old rat pups. In words: Prevention of cytoxan (CTX)-induced alopecia by topical chemoprotective inducers in rat pups. The class given is in vivo, Sprague Dawley rats. Particulars: for protective effect against CTX-induced hair loss (hair density): topical in nonionic liposomes day -2 to day 6, CTX i.p. day 0, scored day 7, 100% = untreated control pups; for alopecia when delivered in minoxidil vehicle (propylene glycol:ethanol:water): minoxidil carrier, compared with CTX-treated pups without inducer.

The subject of data set [2] is chemoprotective/stress-related genes (GST-PI, GST-Mu2, GST-Ya, GST) in rat pup skin. In words: Rat stress gene cDNA expression array on skin samples of treated rat pups. The class given is in vivo. The settings on record: topical 15 mM for 5 days; compared to rat pups treated with cytoxan. As to the method:
In brief, rat pups were treated with either CTX or B-NF and at different time intervals skin samples were collected and total RNA was extracted from them. The RNA was reverse transcribed to form the respective cDNAs in the presence of ^32P dATP using primers specific for stress-related genes. The radiolabeled cDNA synthesized was used to probe a rat stress gene cDNA expression array consisting of 207 stress-related genes (Clontech) according to the manufacturer's protocol. The hybridized membrane was exposed to a phosphorimager screen and the image obtained was aligned with an orientation grid to identify the genes that are expressed. Images from control, CTX, treated and B-NF-treated animals were compared to determine the changes, if any, in the expression pattern of chemoprotective genes under these experimental conditions.

For data set [3], the system named is 7 day old rat pups (hair loss). The settings on record: 40 μg/gm CTX i.p., 7 day old pups, examined seven days after.
Method: Lactating Sprague Dawley rats with 12 pups per mother were purchased from Harlan Sprague Dawley. To produce CTX induced alopecia, several concentrations (35, 40 45 μg/gm body weight) of CTX in water were injected i.p. in to 7 day old pups. Seven days after CTX treatment the pups were examined to determine the degree of hair loss. The pups were gently brushed on the back to remove the loose hair sticking onto the skin and photographed. The density of hair on the pups was then determined.

Each structure is given as a SMILES string.

For the compound `Cc1c(-c2cnccn2)ssc1=S` [Oltipraz], the “protective effect against CTX-induced hair loss (hair density)” value in data set [1] is 50%.

As for `CC(C)(C)c1cc(O)ccc1O` [tBHQ, tert-butylhydroquinone], the “protective effect against CTX-induced hair loss (hair density)” value in data set [1] was 10%.

As for `O=c1cc(-c2ccccc2)oc2ccc3ccccc3c12` [B-NF, β-naphthoflavone], the “expression level of GST-PI, GST-Mu2, GST-Ya and GST (rat homolog of human) in skin” value in data set [2] is “significant increase”. The “protective effect when applied only on the day before cytoxan” value in data set [1] (applied only on the day before cytoxan) is on record as “substantial protective effect”. The “alopecia when delivered in minoxidil vehicle (propylene glycol:ethanol:water)” value in data set [1] is “as severe as the untreated CTX-treated rat pups”; in data set [1] (listed as BNF) it was “hair loss equivalent to that observed in cytoxan-treated animals not pre-treated”. Also, the “protective effect against CTX-induced hair loss (hair density)” value in data set [1] came to 80%.

In the case of `C[S+]([O-])CCCCN=C=S` (stereo not shown) [sulphoraphane], the “protective effect against CTX-induced hair loss (hair density)” value in data set [1] worked out at 5%.

With `O=P1(N(CCCl)CCCl)NCCCO1` (stereo not shown) [CTX], the hair loss induced in data set [3] stood at 100%.

In the case of `COc1ccc(O)c(C(C)(C)C)c1` [BHA], in data set [1], the “protective effect against CTX-induced hair loss (hair density)” value is 60%.
